The values below come from patent US8017611B2, “Pyridine and pyrazine derivatives -083” (AstraZeneca AB, priority 2007, dated 2011).

SMILES strings stand for the structures.

The target in one assay is T1, recombinant Axl tyrosine kinase (Homo sapiens, UniProt P30530).
T1 construct: encompassing amino acids 473 to 894 of Axl; GST (N); made in house; host or cells: SF126 insect cells
T1 sequence (P30530 473-894): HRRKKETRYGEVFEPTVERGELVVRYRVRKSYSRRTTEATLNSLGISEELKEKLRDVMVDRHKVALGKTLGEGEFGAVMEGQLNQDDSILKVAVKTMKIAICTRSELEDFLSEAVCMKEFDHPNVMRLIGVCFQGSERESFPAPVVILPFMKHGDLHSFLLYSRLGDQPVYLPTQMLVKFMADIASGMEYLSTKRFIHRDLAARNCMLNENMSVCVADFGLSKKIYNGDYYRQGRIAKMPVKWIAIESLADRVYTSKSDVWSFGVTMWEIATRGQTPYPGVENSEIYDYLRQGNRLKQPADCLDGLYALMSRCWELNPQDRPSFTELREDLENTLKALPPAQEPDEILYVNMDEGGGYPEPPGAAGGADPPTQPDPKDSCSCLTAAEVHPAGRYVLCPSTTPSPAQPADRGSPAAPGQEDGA
Nature of the assay: In vitro Axl kinase assay (AlphaScreen), Test (a). It counts as biochemical. The conditions noted are these: 1 μM; mean calculated from a larger number of replicates than the first value.
`Nc1ncc(-c2ccc(CN3CCOCC3)cc2)nc1-c1nc2ccccc2o1` [Example 20.6]: the “% Axl tyrosine kinase inhibition at 1 μM concentration (second value, †)” value was 99.2%.

As to `Nc1ncc(-c2cccc(N3CCOCC3)c2)cc1-c1nc2ncccc2o1` [Example 10A.1], the “% Axl tyrosine kinase inhibition at 1 μM concentration (second value, †)” value is reported as 52.6%.

Still in this assay, the particulars now being: test compound at 1 μM; first value quoted.
As to `CN1CCCC1CCOc1ccc(-c2cnc(N)c(-c3nc4ncccc4o3)c2)cc1` (stereo not shown) [Example 43B.17], the “% Axl tyrosine kinase inhibition at 1 μM concentration” value is on record as 99.5%.

Take `COc1cc(-c2cnc(N)c(-c3nc4ncccc4o3)c2)ccc1OCCCN` [Example 43C.27]: the “% Axl tyrosine kinase inhibition at 1 μM concentration” value was 99.4%.

In the case of `Nc1ncc(-c2ccc(CN3CCOCC3)cc2)nc1-c1nc2ccccc2o1` [Example 20.6], the “% Axl tyrosine kinase inhibition at 1 μM concentration” value was 99.1%.

In the case of `CN(C)CCC(=O)N1CCC(n2cc(-c3cnc(N)c(-c4nc5cccnc5o4)c3)cn2)CC1` [Example 59.13], the “% Axl tyrosine kinase inhibition at 1 μM concentration” value is recorded as 99.7%.

As to `Nc1ncc(-c2ccc(C(=O)NC3CCCNC3)cc2)cc1-c1nc2cccnc2o1` (stereo not shown) [Example 45A.84], the “% Axl tyrosine kinase inhibition at 1 μM concentration” value is given as 99.1%.

For `Cc1nn(C2CCN(C)CC2)cc1-c1cnc(N)c(-c2nc3c(F)cccc3o2)c1` [Example 41.23], the “% Axl tyrosine kinase inhibition at 1 μM concentration” value is listed as 100.0%.

On to `CN1CC(NC(=O)c2ccc(-c3cnc(N)c(-c4nc5cccnc5o4)c3)cc2)C1` [Example 45A.30], for which the “% Axl tyrosine kinase inhibition at 1 μM concentration” value was 97.4%.

As to `CN1CCN(c2ccc(-c3cnc(N)c(-c4nc5cccnc5o4)c3)cc2)CC1` [Example 25.10], the “% Axl tyrosine kinase inhibition at 1 μM concentration” value was found to be 97.7%.

Take `CC1CCCCN1CC1CCCN1C(=O)c1ccc(-c2cnc(N)c(-c3nc4cccnc4o3)c2)cc1` (stereo not shown) [Example 45A.18]: the “% Axl tyrosine kinase inhibition at 1 μM concentration” value is recorded as 99.7%.

Consider `CN(C)C1CCCN(C(=O)c2ccc(-c3cnc(N)c(-c4nc5cccnc5o4)c3)cc2)C1` (stereo not shown) [Example 45A.20], for which the “% Axl tyrosine kinase inhibition at 1 μM concentration” value came out at 98.9%.

In the case of `CN1CCN(CCCNC(=O)c2ccc(-c3cnc(N)c(-c4nc5cccnc5o4)c3)cc2)CC1` [Example 45A.58], the “% Axl tyrosine kinase inhibition at 1 μM concentration” value is 97.0%.

As for `Nc1ncc(-c2ccc(C(=O)NCCO)cc2)cc1-c1nc2ncccc2o1` [Example 10A.5], the “% Axl tyrosine kinase inhibition at 1 μM concentration” value was 91.4%.

For the compound `Nc1ncc(-c2ccc(C(=O)NC[C@H]3CCCNC3)cc2)cc1-c1nc2cccnc2o1` [Example 45A.93], the “% Axl tyrosine kinase inhibition at 1 μM concentration” value is 99.3%.

On to `Nc1ncc(-c2cccc(CN3CCCCC3)c2)cc1-c1nc2cnccc2o1` [Example 8A.20], for which the “% Axl tyrosine kinase inhibition at 1 μM concentration” value came to 95.2%.

For the compound `NC(=O)CN1CCC(n2cc(-c3cnc(N)c(-c4nc5ncccc5o4)c3)cn2)CC1` [Example 53.3], the “% Axl tyrosine kinase inhibition at 1 μM concentration” value was determined as 98.8%.

For the compound `Nc1ncc(-c2cccc(C(=O)NCCN3CCOCC3)c2)cc1-c1nc2cccnc2o1` [Example 9A.22], the “% Axl tyrosine kinase inhibition at 1 μM concentration” value came out at 81.9%.

As for `COCc1cccc(-c2cnc(N)c(-c3nc4ccccc4o3)c2)c1` [Example 2.15], the “% Axl tyrosine kinase inhibition at 1 μM concentration” value stood at 80.2%.

On to `COc1cc(-c2cnc(N)c(-c3nc4ncccc4o3)c2)ccc1OC1CCCNC1` (stereo not shown) [Example 43C.26], for which the “% Axl tyrosine kinase inhibition at 1 μM concentration” value was 99.6%.

As for `CN(C)C(=O)c1nn(C2CCNCC2)cc1-c1cnc(N)c(-c2nc3ccccc3o2)c1` [Example 62.2], the “% Axl tyrosine kinase inhibition at 1 μM concentration” value came to 98.8%.

On to `CN(C)CCCOc1ccc(-c2cnc(N)c(-c3nc4ccccc4o3)c2)cn1` [Example 2.26], for which the “% Axl tyrosine kinase inhibition at 1 μM concentration” value is given as 99.5%.

As for `Nc1ncc(-c2cnc3ccccc3c2)cc1-c1nc2ccccc2o1` [Example 2.24], the “% Axl tyrosine kinase inhibition at 1 μM concentration” value came out at 88.9%.

Turning to `COCc1nn(C2CCN(C)CC2)cc1-c1cnc(N)c(-c2nc3cccc(OC)c3o2)c1` [Example 41.43], the “% Axl tyrosine kinase inhibition at 1 μM concentration” value is given as 100.0%.

Consider `Nc1ncc(-c2cccc(S(=O)(=O)N3CCOCC3)c2)cc1-c1nc2cnccc2o1` [Example 8A.13], for which the “% Axl tyrosine kinase inhibition at 1 μM concentration” value amounted to 71.3%.

In the case of `Nc1ncc(-c2ccc(CO)s2)cc1-c1nc2ncccc2o1` [Example 10A.19], the “% Axl tyrosine kinase inhibition at 1 μM concentration” value was determined as 90.1%.

On to `CN1C2CCC1CC(Oc1ccc(-c3cnc(N)c(-c4nc5ncccc5o4)c3)cc1)C2` (stereo not shown) [Example 43B.21], for which the “% Axl tyrosine kinase inhibition at 1 μM concentration” value came out at 99.6%.

For `Nc1ncc(-c2cccc(C(=O)NCCN3CCOCC3)c2)cc1-c1nc2ncccc2o1` [Example 10A.2], the “% Axl tyrosine kinase inhibition at 1 μM concentration” value was found to be 63.9%.

Consider `CS(=O)(=O)N1CCN(CCCOc2ccc(-c3cnc(N)c(-c4nc5ncccc5o4)c3)cc2)CC1` [Example 43B.15], for which the “% Axl tyrosine kinase inhibition at 1 μM concentration” value came to 86.0%.

With `N#CCC1(n2cc(-c3cnc(N)c(-c4nc5ccccc5o4)c3)cn2)CCNCC1` [Example 25.1], the “% Axl tyrosine kinase inhibition at 1 μM concentration” value is given as 95.0%.

For `CC1CCN(CCCNC(=O)c2ccc(-c3cnc(N)c(-c4nc5cccnc5o4)c3)cc2)CC1` [Example 45A.46], the “% Axl tyrosine kinase inhibition at 1 μM concentration” value amounted to 99.1%.

As for `Nc1ncc(-c2cccc(N3CCOCC3)c2)cc1-c1nc2ncccc2o1` [Example 10A.1], the “% Axl tyrosine kinase inhibition at 1 μM concentration” value was 55.3%.

`CNC(=O)c1nn(C2CCN(C)CC2)cc1-c1cnc(N)c(-c2nc3ccccc3o2)c1` [Example 41.33]: the “% Axl tyrosine kinase inhibition at 1 μM concentration” value was determined as 99.6%.

As to `COc1cc(-c2cnc(N)c(-c3nc4ncccc4o3)c2)ccc1OC1CCCN(C)C1` (stereo not shown) [Example 43C.9], the “% Axl tyrosine kinase inhibition at 1 μM concentration” value came out at 99.9%.

With `NCc1ccc(-c2cnc(N)c(-c3nc4ccccc4o3)c2)cc1` [Example 2.13], the “% Axl tyrosine kinase inhibition at 1 μM concentration” value was found to be 99.7%.

Regarding `CN(C)CCOc1ccc(-c2cnc(N)c(-c3nc4ncccc4o3)c2)cc1` [Example 43B.2], the “% Axl tyrosine kinase inhibition at 1 μM concentration” value was 96.9%.

For the compound `Cc1nn(C2CCNCC2)cc1-c1cnc(N)c(-c2nc3c(C#N)cccc3o2)c1` [Example 62.11], the “% Axl tyrosine kinase inhibition at 1 μM concentration” value stood at 99.8%.

On to `Nc1ncc(-c2ccc(C(=O)NCCCN3CCCCC3)cc2)cc1-c1nc2cccnc2o1` [Example 45A.9], for which the “% Axl tyrosine kinase inhibition at 1 μM concentration” value is given as 99.0%.

As for `CNS(=O)(=O)c1cccc(-c2cnc(N)c(-c3nc4ccncc4o3)c2)c1` [Example 11A.8], the “% Axl tyrosine kinase inhibition at 1 μM concentration” value is 39.6%.

Consider `Nc1ncc(-c2cn(C3CCNCC3)nc2CO)cc1-c1nc2c(F)cccc2o1` [Example 62.6], for which the “% Axl tyrosine kinase inhibition at 1 μM concentration” value is given as 100.0%.

In the case of `CN(C)CCNC(=O)c1ccc(-c2cnc(N)c(-c3nc4ccccc4o3)c2)cc1` [Example 2.41], the “% Axl tyrosine kinase inhibition at 1 μM concentration” value turned out to be 99.9%.

For `CN1CCCC1CCNC(=O)c1ccc(-c2cnc(N)c(-c3nc4cccnc4o3)c2)cc1` (stereo not shown) [Example 45A.5], the “% Axl tyrosine kinase inhibition at 1 μM concentration” value is reported as 98.8%.

Consider `CNC1CCN(C(=O)c2ccc(-c3cnc(N)c(-c4nc5cccnc5o4)c3)cc2)C1` (stereo not shown) [Example 45A.80], for which the “% Axl tyrosine kinase inhibition at 1 μM concentration” value is listed as 99.7%.

Regarding `Nc1ncc(-c2cccc(CN3CCOCC3)c2)nc1-c1nc2ccccc2o1` [Example 20.10], the “% Axl tyrosine kinase inhibition at 1 μM concentration” value is given as 99.1%.

As for `CCOc1nn(C2CCNCC2)cc1-c1cnc(N)c(-c2nc3ccccc3o2)c1` [Example 25.3], the “% Axl tyrosine kinase inhibition at 1 μM concentration” value is listed as 100.0%.

For the compound `CCS(=O)(=O)c1cccc(-c2cnc(N)c(-c3nc4ccccc4o3)n2)c1` [Example 20.13], the “% Axl tyrosine kinase inhibition at 1 μM concentration” value is on record as 97.2%.

In the case of `Nc1ncc(-c2ccc(C(=O)NCCN3CCS(=O)(=O)CC3)cc2)cc1-c1nc2cccnc2o1` [Example 45A.12], the “% Axl tyrosine kinase inhibition at 1 μM concentration” value is 96.3%.

For `CC(C)N1CCC[C@H]1CNC(=O)c1ccc(-c2cnc(N)c(-c3nc4cccnc4o3)c2)cc1` [Example 45A.43], the “% Axl tyrosine kinase inhibition at 1 μM concentration” value was 99.9%.

As for `Nc1ncc(-c2cnn(C3CCN(CCO)CC3)c2)cc1-c1nc2ncccc2o1` [Example 53.5], the “% Axl tyrosine kinase inhibition at 1 μM concentration” value is on record as 100.0%.

Staying with this assay, now noted: test compound at 1 μM; first value quoted; read-out: % Axl tyrosine kinase inhibition at 1 μM concentration.
Regarding `CCNS(=O)(=O)c1cccc(-c2cnc(N)c(-c3nc4ccccc4o3)c2)c1` [Example 48, 3-[6-Amino-5-(1,3-benzoxazol-2-yl)-3-pyridyl]-N-ethyl-benzenesulphonamide], the inhibition at 1 µM came out at 93.5%.

`Nc1ncc(-c2cccc(CC(=O)O)c2)nc1-c1nc2ccc(F)cc2o1` [Example 50, 2-[3-[5-amino-6-(6-fluoro-1,3-benzoxazol-2-yl)pyrazin-2-yl]phenyl]acetic acid]: the inhibition at 1 µM was found to be 47.6%.

For `CNC(=O)[C@@H]1C[C@@H](n2cc(-c3cnc(N)c(-c4nc5ccccc5o4)c3)cn2)CN1` [Example 51, (2S,4R)-4-[4-[6-amino-5-(1,3-benzoxazol-2-yl)-3-pyridyl]pyrazol-1-yl]-N-methyl-pyrrolidine-2-carboxamide], the inhibition at 1 µM was 99.9%.

With `Nc1ncc(-c2cnn(CCCO)c2)cc1-c1nc2ccccc2o1` [Example 29.1, 3-[4-[6-amino-5-(1,3-benzoxazol-2-yl)-3-pyridyl]pyrazol-1-yl]propan-1-ol], the inhibition at 1 µM turned out to be 99.7%.

On to `COc1cc(N2CCN(C)CC2)ccc1-c1cnc(N)c(-c2nc3ncccc3o2)c1` [Example 25.6, 5-[2-methoxy-4-(4-methylpiperazin-1-yl)phenyl]-3-oxazolo[4,5-b]pyridin-2-yl-pyridin-2-amine], for which the inhibition at 1 µM is 99.5%.

`COCc1nn(C2CCNCC2)cc1-c1cnc(N)c(-c2nc3ccccc3o2)c1` [Example 25.14, 3-(1,3-benzoxazol-2-yl)-5-[3-(methoxymethyl)-1-(4-piperidyl)pyrazol-4-yl]pyridin-2-amine]: the inhibition at 1 µM came to 100%.
